Assay results from ChEMBL document CHEMBL1141046, “Design, synthesis and structure-activity relationship of a series of fragment analogues of antistasin (ATS) and ghilantens (GLS)” (Bioorg Med Chem Lett, 2005).
Each block holds one molecule with its values, some of them ahead of it. Square brackets hold non-standard residues; d marks the D form. Peptide text beside a SMILES is read from it. Orn = NCCC[C@H](N)C(=O)O

Key:
[1] = Concentration for doublingAPTT clotting times of human plasma; type: functional, cell-free
[2] = Anticoagulant activity of compound in respect to APTT in human poor platelet plasma (PPP) at a concentration 272.29(nM) of was measured by the Amelung coagulometer KC4A apparatus; type: functional
[3] = Anticoagulant activity of compound in respect to APTT in human poor platelet plasma (PPP) at a concentration 802.24(nM) of was measured by the Amelung coagulometer KC4A apparatus; type: functional
[4] = Anticoagulant activity of compound in respect to APTT in human poor platelet plasma (PPP) at a concentration 523.64(nM) of was measured by the Amelung coagulometer KC4A apparatus; type: functional
Homo sapiens = organism: Homo sapiens; assay: Anticoagulant activity of compound in respect to APTT in human poor platelet plasma (PPP) at a concentration 41.89(nM) of was measured by the Amelung coagulometer KC4A apparatus; type: functional, cell-free
[5] = Anticoagulant activity of compound in respect to APTT in human poor platelet plasma (PPP) at 418.91 nM concentration was measured by the Amelung coagulometer KC4A apparatus; type: functional
[6] = Anticoagulant activity of compound in respect to APTT in human poor platelet plasma (PPP) at 771 nM concentration was measured by the Amelung coagulometer KC4A apparatus; type: functional
[7] = Anticoagulant activity of compound in respect to APTT in human poor platelet plasma (PPP) at 1156.6 nM concentration was measured by the Amelung coagulometer KC4A apparatus; type: functional
[8] = Anticoagulant activity of compound in respect to APTT in human poor platelet plasma (PPP) at 894 nM concentration was measured by the Amelung coagulometer KC4A apparatus; type: functional
[9] = Anticoagulant activity of compound in respect to APTT in human poor platelet plasma (PPP) at 1043.42 nM concentration was measured by the Amelung coagulometer KC4A apparatus; type: functional
[10] = Anticoagulant activity of compound in respect to APTT in human poor platelet plasma (PPP) at 2235.9 nM concentration was measured by the Amelung coagulometer KC4A apparatus; type: functional
[11] = Anticoagulant activity of compound in respect to APTT in human poor platelet plasma (PPP) at 290 nM concentration was measured by the Amelung coagulometer KC4A apparatus; type: functional
[12] = Anticoagulant activity of compound in respect to APTT in human poor platelet plasma (PPP) at 1117.95 nM concentration was measured by the Amelung coagulometer KC4A apparatus; type: functional
[13] = Anticoagulant activity of compound in respect to APTT in human poor platelet plasma (PPP) at 1192 nM concentration was measured by the Amelung coagulometer KC4A apparatus; type: functional
[14] = Anticoagulant activity of compound in respect to APTT in human poor platelet plasma (PPP) at 1077.7 nM concentration was measured by the Amelung coagulometer KC4A apparatus; type: functional
[15] = Anticoagulant activity of compound in respect to APTT in human poor platelet plasma (PPP) at 646.61 nM concentration was measured by the Amelung coagulometer KC4A apparatus; type: functional
[16] = Anticoagulant activity of compound in respect to APTT in human poor platelet plasma (PPP) at 211 nM concentration was measured by the Amelung coagulometer KC4A apparatus; type: functional
[17] = Anticoagulant activity of compound in respect to APTT in human poor platelet plasma (PPP) at 906.8 nM concentration was measured by the Amelung coagulometer KC4A apparatus; type: functional
[18] = Anticoagulant activity of compound in respect to APTT in human poor platelet plasma (PPP) at 2992.43 nM concentration was measured by the Amelung coagulometer KC4A apparatus; type: functional
[19] = Anticoagulant activity of compound in respect to APTT in human poor platelet plasma (PPP) at 1813.59 nM concentration was measured by the Amelung coagulometer KC4A apparatus; type: functional
[20] = Anticoagulant activity of compound in respect to APTT in human poor platelet plasma (PPP) at 2901.75 nM concentration was measured by the Amelung coagulometer KC4A apparatus; type: functional
[21] = Anticoagulant activity of compound in respect to APTT in human poor platelet plasma (PPP) at 2720.39 nM concentration was measured by the Amelung coagulometer KC4A apparatus; type: functional
[22] = Anticoagulant activity of compound in respect to APTT in human poor platelet plasma (PPP) at 2266.99 nM concentration was measured by the Amelung coagulometer KC4A apparatus; type: functional
[23] = Anticoagulant activity of compound in respect to APTT in human poor platelet plasma (PPP) at 1338.96 nM concentration was measured by the Amelung coagulometer KC4A apparatus; type: functional
[24] = Anticoagulant activity of compound in respect to APTT in human poor platelet plasma (PPP) at 1562.12 nM concentration was measured by the Amelung coagulometer KC4A apparatus; type: functional
[25] = Anticoagulant activity of compound in respect to APTT in human poor platelet plasma (PPP) at 1785.28 nM concentration was measured by the Amelung coagulometer KC4A apparatus; type: functional
[26] = Anticoagulant activity of compound in respect to APTT in human poor platelet plasma (PPP) at 881.56 nM concentration was measured by the Amelung coagulometer KC4A apparatus; type: functional
[27] = Anticoagulant activity of compound in respect to APTT in human poor platelet plasma (PPP) at 705.25 nM concentration was measured by the Amelung coagulometer KC4A apparatus; type: functional
[28] = Anticoagulant activity of compound in respect to APTT in human poor platelet plasma (PPP) at 528.94 nM concentration was measured by the Amelung coagulometer KC4A apparatus; type: functional

- IC50 [1]: 1560 nM
Molecule: H-PKRKLVP-OH [listing 1 of 2 here]

- IC50 [1]: 802 nM
Molecule: H-RPKLVP-OH
- APTT [2]: 3.8 s
- APTT [3]: 62.4 s
- APTT [4]: 15.6 s
- APTT (Homo sapiens): No activity
- APTT [5]: 5.5 s

- IC50 [1]: 1120 nM
Molecule: H-KPKRKLVP-OH
- APTT [8]: 21.6 s
- APTT [9]: 24.1 s
- APTT [10]: 122.8 s
- APTT [11]: 6.7 s
- APTT [12]: 30 s
- APTT [13]: 50.9 s

- IC50 [1]: 647 nM
Molecule: H-KPKRKLVP-NH2
- APTT [14]: 57.9 s
- APTT [15]: 28.9 s
- APTT [16]: 8.9 s

- IC50 [1]: 1160 nM
Molecule: CC(C)C[C@H](NC(=O)[C@H](CCCCN)NC(=O)[C@H](CCCN=C(N)N)NC(=O)[C@H](CCCCN)NC(=O)[C@@H]1CCCN1C(=O)[C@@H](N)CCCN)C(=O)N[C@H](C(=O)N1CCC[C@H]1C(=O)O)C(C)C (H-[Orn]PKRKLVP-OH) [listing 2 of 2 here]

More lines, now with the values behind:

Molecule: CC(C)C[C@H](NC(=O)[C@H](CCCCN)NC(=O)[C@H](CCCN=C(N)N)NC(=O)[C@H](CCCCN)NC(=O)[C@@H]1CCCN1C(=O)[C@@H](N)CCCN)C(=O)N[C@H](C(=O)N1CCC[C@H]1C(N)=O)C(C)C (H-[Orn]PKRKLVP-NH2) [listing 1 of 2 here]
- IC50 [1]: 705 nM

Molecule: CC(C)C[C@H](NC(=O)[C@H](CCCCN)NC(=O)[C@H](CCCN=C(N)N)NC(=O)[C@H](CCCCN)NC(=O)[C@@H]1CCCN1C(=O)[C@@H](N)CCCN)C(=O)N[C@H](C(=O)N1CCC[C@H]1C(=O)O)C(C)C (H-[Orn]PKRKLVP-OH) [listing 1 of 2 here]
- APTT [6]: 22.2 s
- APTT [7]: 28.5 s

Molecule: H-PKRKLVP-NH2 [listing 1 of 2 here]
- APTT [17]: 8.8 s
- APTT [18]: 32.4 s
- APTT [19]: 18.6 s
- APTT [20]: 29.8 s
- APTT [21]: 25.5 s
- APTT [22]: 18.8 s

Molecule: H-PKRKLVP-OH [listing 2 of 2 here]
- APTT [23]: 22.1 s
- APTT [24]: 31 s
- APTT [25]: 47.1 s

Molecule: CC(C)C[C@H](NC(=O)[C@H](CCCCN)NC(=O)[C@H](CCCN=C(N)N)NC(=O)[C@H](CCCCN)NC(=O)[C@@H]1CCCN1C(=O)[C@@H](N)CCCN)C(=O)N[C@H](C(=O)N1CCC[C@H]1C(N)=O)C(C)C (H-[Orn]PKRKLVP-NH2) [listing 2 of 2 here]
- APTT [26]: 53.3 s
- APTT [27]: 29.3 s
- APTT [28]: 0.5 s

Molecule: H-PKRKLVP-NH2 [listing 2 of 2 here]
- IC50 [1]: 2900 nM
